Test [1] concerns the target Angiotensin II receptor (Rattus norvegicus) (UniProt P29089+P25095+P35351). The test is described as follows: In vivo antagonism of Angiotensin II induced dose-pressor response in male rats. It counts as functional, organism-based.
The species named for the next test is Oryctolagus cuniculus. Briefly: Potency of the Angiotensin II-induced contraction of rabbit aortic strips. It counts as functional, Aorta. The settings on record: for Kb: Oryctolagus cuniculus, Aorta, read-out: pA2 (converted).
In test [2] the target is T1, Type-1 angiotensin II receptor (Bos taurus, UniProt P25104).
T1 sequence (P25104 whole entry): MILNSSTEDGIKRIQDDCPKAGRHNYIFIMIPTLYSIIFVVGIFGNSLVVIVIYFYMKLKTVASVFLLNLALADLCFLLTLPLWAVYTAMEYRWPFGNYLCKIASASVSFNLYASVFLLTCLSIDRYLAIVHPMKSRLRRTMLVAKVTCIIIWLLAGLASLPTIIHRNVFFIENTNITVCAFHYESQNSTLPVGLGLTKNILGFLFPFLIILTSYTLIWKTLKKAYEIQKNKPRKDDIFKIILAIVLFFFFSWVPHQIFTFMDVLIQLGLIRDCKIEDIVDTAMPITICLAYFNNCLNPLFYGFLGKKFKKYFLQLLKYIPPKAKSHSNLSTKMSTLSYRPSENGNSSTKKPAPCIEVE
The test is described as follows: Inhibition of [125I][Ile5]-AII binding to bovine adrenal cortex membrane Angiotensin II receptor type 1. In kind it is tissue-based.

In test [1], `CSc1nc2c(C)ccnc2n1Cc1ccc(-c2ccccc2C(=O)O)cc1` showed an ED2 of 0.97 mg/kg. The Kb in the test listed under Oryctolagus cuniculus was 10 nM. The compound `CCCCc1nc2ccccc2n1Cc1ccc(O)cc1` gave an IC50 in test [2] of 8500 nM. Still for that read-out and setting: the same measure for `CCCCc1nc2ccccc2n1Cc1cc(I)c(O)c(I)c1`: 1500 nM. Consider `O=C(O)c1ccccc1-c1ccc(Cn2c(C3CC3)nc3c(CO)ccnc32)cc1`, for which, in the test listed under Oryctolagus cuniculus, the Kb was 10 nM. As to `CCCCc1nc2cccnc2n1Cc1cc(Cl)c(O)c(Cl)c1`, the ED2 in test [1] was 1.9 mg/kg. In addition, the Kb in the test filed under Oryctolagus cuniculus was 63.1 nM. As for `Cc1ccnc2c1nc(C1CCC1)n2Cc1ccc(-c2ccccc2C(=O)O)cc1`, the ED2 in test [1] is 0.25 mg/kg. In addition, the Kb in the test filed under Oryctolagus cuniculus was 5.01 nM. For `CCCCc1nc(Cl)c(CO)n1Cc1ccc(-c2ccccc2-c2nnn[nH]2)cc1` [LOSARTAN], in that order: 0.28 mg/kg and 2.51 nM.

With `Cc1ccnc2c1nc(C(C)C)n2Cc1ccc(-c2ccccc2C(=O)O)cc1`, the ED2 in test [1] was determined as 0.84 mg/kg. Further, the Kb in the test filed under Oryctolagus cuniculus was 31.6 nM. For `CCSc1nc2c(C)ccnc2n1Cc1ccc(-c2ccccc2C(=O)O)cc1`, in that order: 0.41 mg/kg and 5.01 nM. Taken in the same sequence, the figures for `COCc1nc2c(C)ccnc2n1Cc1ccc(-c2ccccc2C(=O)O)cc1` were 0.65 mg/kg and 79.4 nM. `Cc1ccnc2c1nc(C1CC1)n2Cc1ccc(-c2ccccc2C(=O)O)cc1` gave an ED2 in test [1] of 0.075 mg/kg. Besides, the Kb in the test filed under Oryctolagus cuniculus was 2 nM. For the compound `CCCCc1nc2ccccc2n1Cc1cc([N+](=O)[O-])c(O)c([N+](=O)[O-])c1`, in test [2], the IC50 amounted to 1600 nM. For the compound `CCc1nc2c(C)ccnc2n1Cc1ccc(-c2ccccc2C(=O)O)cc1`, the ED2 in test [1] came to 0.29 mg/kg. The Kb in the test filed under Oryctolagus cuniculus is 1.26 nM.

In test [1], `CCCc1nc2c(C)ccnc2n1Cc1ccc(-c2ccccc2C(=O)O)cc1` returned an ED2 of 0.16 mg/kg. Further, in the test listed under Oryctolagus cuniculus, the pA2 is listed as 8.5 and the Kb was 3.16 nM. In the case of `CCCCc1nc2ccccc2n1Cc1cc(Cl)c(O)c(Cl)c1`, the ED2 in test [1] came to 6.5 mg/kg. For the same compound, the Kb in the test filed under Oryctolagus cuniculus was 63.1 nM. The compound also registered an IC50 in test [2] of 3200 nM. With `CCCc1nc2cccnc2n1Cc1ccc(-c2ccccc2C(=O)O)cc1`, the Kb in the test filed under Oryctolagus cuniculus is 39.8 nM. As to `CCCCc1nc2c(C)ccnc2n1Cc1ccc(-c2ccccc2C(=O)O)cc1`, in test [1], the ED2 turned out to be 0.45 mg/kg. Moreover, the Kb in the test filed under Oryctolagus cuniculus is 7.94 nM. In test [2], `CCCCc1nc2ccccc2n1Cc1cc(C)c(O)c(C)c1` came in with an IC50 of 4700 nM. Regarding `Cc1ccnc2c1nc(CCCO)n2Cc1ccc(-c2ccccc2C(=O)O)cc1`, the Kb in the test filed under Oryctolagus cuniculus was 501 nM. For `Oc1c(Cl)cc(Cn2c(C3CC3)nc3cccnc32)cc1Cl`, in test [1], the ED2 came out at 0.48 mg/kg. In the test filed under Oryctolagus cuniculus, the Kb was 20 nM.

The compound `CCCCc1nc2ccccc2n1CCc1cc(I)c(O)c(I)c1` gave an IC50 in test [2] of 81000 nM.

As for `Cc1ccnc2c1nc(C1CC1)n2Cc1cc(Cl)c(O)c(Cl)c1`, the ED2 in test [1] came to 0.079 mg/kg. Moreover, in the test listed under Oryctolagus cuniculus, the Kb is 2 nM.

In turn, `CCCCc1nc2ccccc2n1Cc1ccc(I)c(O)c1I` yielded an IC50 in test [2] of 33000 nM. In turn, `CCCCc1nc2c(C)cccc2n1Cc1cc(Cl)c(O)c(Cl)c1` gave an ED2 in test [1] of 1.3 mg/kg. The Kb in the test filed under Oryctolagus cuniculus is 20 nM. `CCCCc1nc2ccccc2n1Cc1cc(Br)c(O)c(Br)c1`: in test [2], the IC50 amounted to 2500 nM. On to `CCCCc1nc2ncccc2n1Cc1cc(Cl)c(O)c(Cl)c1`, for which the Kb in the test filed under Oryctolagus cuniculus is 398 nM.

In the case of `Oc1c(Cl)cc(Cn2c(C3CC3)nc3ncccc32)cc1Cl`, the Kb in the test listed under Oryctolagus cuniculus is 631 nM. As to `CCCc1nc2ncccc2n1Cc1cc(Cl)c(O)c(Cl)c1`, in the test listed under Oryctolagus cuniculus, the Kb was 794 nM. Consider `CCCCc1nc2ccccc2n1Cc1cc(C)c(O)c(I)c1`, for which, in test [2], the IC50 worked out at 2200 nM.

On to `O=C(O)c1ccccc1-c1ccc(Cn2c(C3CC3)nc3c(C(=O)O)ccnc32)cc1`, for which, in the test filed under Oryctolagus cuniculus, the Kb is 25.1 nM. Take `CCCCc1nc2ccccc2n1Cc1cc(C(C)(C)C)c(O)c(C(C)(C)C)c1`: the IC50 in test [2] was more than 100000 nM. In test [2], `CCCCc1nc2ccccc2n1Cc1cc(C)c(O)c([N+](=O)[O-])c1` showed an IC50 of 2200 nM. In test [1], `Cc1ccnc2c1nc(C)n2Cc1ccc(-c2ccccc2C(=O)O)cc1` yielded an ED2 of 1.3 mg/kg. In the test filed under Oryctolagus cuniculus, the Kb is 50.1 nM. `CCCc1nc2c(Cl)ccnc2n1Cc1ccc(-c2ccccc2C(=O)O)cc1`: the ED2 in test [1] was 0.66 mg/kg. In the test filed under Oryctolagus cuniculus, the Kb is 7.94 nM. Take `CCCCc1nc2c(C)ccnc2n1Cc1cc(Cl)c(O)c(Cl)c1`: the ED2 in test [1] came out at 0.55 mg/kg. In the test listed under Oryctolagus cuniculus, the Kb was 10 nM. Turning to `CCCCc1nc2ccccc2n1Cc1ccc(O)c(C)c1`, the IC50 in test [2] was determined as 20000 nM.

`CCCc1nc2cccnc2n1Cc1cc(Cl)c(O)c(Cl)c1` returned an ED2 in test [1] of 0.65 mg/kg. The Kb in the test listed under Oryctolagus cuniculus is 31.6 nM. The compound `C/C=C/c1nc2c(C)ccnc2n1Cc1ccc(-c2ccccc2C(=O)O)cc1` yielded an ED2 in test [1] of 0.35 mg/kg. The Kb in the test listed under Oryctolagus cuniculus is 5.01 nM. For `CCCc1nc2c(C)ccnc2n1Cc1cc(Cl)c(O)c(Cl)c1`, in that order: 0.15 mg/kg and 1.26 nM.

What is called IC50 is the concentration at which inhibition is half-maximal. Read a low IC50 as greater potency in that assay. By pA2 is commonly meant a measure of antagonist potency on a negative log scale.

The record behind these values is ChEMBL document CHEMBL1127872, “Discovery and development of aryl-fused imidazole-based angiotensin II antagonists” (Bioorg Med Chem Lett, 1994).
